Source: patent US20030224942A1, “Alkylamino-1,3,5-triazines, processes for their preparation and their use as herbicides and plant growth regulators” (priority 2001, published 2003)

Tests used:
[1] = tested on: Chenopodium spp., Papaver spp., Polygonum spp., Veronica spp. or Viola spp.; test: Post-emergence effect on weeds (greenhouse pot test, visual scoring); format: in vivo, monocotyledonous and dicotyledonous weeds; details: treated at three-leaf stage; visual scoring after about 3 to 4 weeks; application rate of 0.5 kg and less of active substance per hectare
[2] = tested on: Cyperus spp., Echinochloa spp., Digitaria spp., Sagitaria spp. and Scirpus spp.; test: Action on harmful plants in rice (paddy rice conditions, visual scoring); format: in vivo, typical rice weeds (gramineous and broad-leaved); details: applied into the dammed water, visual scoring about three weeks after application
In short: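 Under paddy conditions with 2-3 cm dammed water, transplanted and sown rice plus weeds were treated at three-leaf stage (E. crus-galli at 1.5 leaves). Pots stayed in greenhouse under optimum growth conditions for the test period, with visual assessment of damage.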

Row | Structure (SMILES) | herbicidal activity post-emergence against harmful plants [1] | herbicidal activity against harmful plants which are typical for rice crops [2]
1 | CC(C)c1nc(N)nc(NC(C)c2ccc(F)c(C(F)=C(F)F)c2)n1 (stereo not shown) [Product P12.5] | very good herbicidal activity | very good herbicidal activity
2 | CC(C)c1nc(N)nc(NC(C)c2cc(F)c(C(F)=C(F)F)c(F)c2)n1 (stereo not shown) [Product P12.49] | very good herbicidal activity | very good herbicidal activity
3 | C#Cc1ccc(C(C)Nc2nc(N)nc(C(C)C)n2)cc1C (stereo not shown) [Product P12.335] | very good herbicidal activity | very good herbicidal activity
4 | CC(O)C#Cc1cc(C(C)Nc2nc(N)nc(C(C)C)n2)ccc1F (stereo not shown) [Product P12.840] | very good herbicidal activity | very good herbicidal activity
5 | CC(C)c1nc(N)nc(NC(C)c2ccc(F)c(C3CC3)c2)n1 (stereo not shown) [Product P12.916] | very good herbicidal activity | very good herbicidal activity
6 | CC(C)c1nc(N)nc(NC(C)c2cc(F)c(C3CC3)c(F)c2)n1 (stereo not shown) [Product P12.960] | very good herbicidal activity | very good herbicidal activity
7 | CC(C)c1nc(N)nc(NC(C)c2cccc(C(F)=C(F)F)c2)n1 (stereo not shown) [Product P12.1567] | very good herbicidal activity | very good herbicidal activity
8 | CC(C)c1nc(N)nc(NC(C)c2ccc(C(F)=C(F)F)cc2)n1 (stereo not shown) [Product P12.1568] | very good herbicidal activity | very good herbicidal activity
9 | C#Cc1cccc(C(C)Nc2nc(N)nc(C(C)C)n2)c1 (stereo not shown) [Product P12.1579] | very good herbicidal activity | very good herbicidal activity
10 | CC(C)c1nc(N)nc(NC(C)c2cccc(C3CC3)c2)n1 (stereo not shown) [Product P12.1603] | very good herbicidal activity | very good herbicidal activity
11 | CC(C)c1nc(N)nc(NC(C)c2ccc(C3CC3)cc2)n1 (stereo not shown) [Product P12.1604] | very good herbicidal activity | very good herbicidal activity
12 | C#Cc1ccc(C(C)Nc2nc(N)nc(C(C)C)n2)cc1F (stereo not shown) [Product P12.1620] | very good herbicidal activity | very good herbicidal activity
13 | C#Cc1cc(C(Nc2nc(N)nc(C(C)C)n2)C2CC2)ccc1F (stereo not shown) [Product P14.309] | very good herbicidal activity | very good herbicidal activity
14 | C#Cc1c(F)cc(C(Nc2nc(N)nc(C(C)C)n2)C2CC2)cc1F (stereo not shown) [Product P14.352] | very good herbicidal activity | very good herbicidal activity
15 | CC#Cc1cc(C(Nc2nc(N)nc(C(C)C)n2)C2CC2)ccc1F (stereo not shown) [Product P14.384] | very good herbicidal activity | very good herbicidal activity
16 | CC#Cc1c(F)cc(C(Nc2nc(N)nc(C(C)C)n2)C2CC2)cc1F (stereo not shown) [Product P14.428] | very good herbicidal activity | very good herbicidal activity
17 | CC(C)c1nc(N)nc(NC(c2cccc(C(F)=C(F)F)c2)C2CC2)n1 (stereo not shown) [Product P14.1567] | very good herbicidal activity | very good herbicidal activity
18 | CC(C)c1nc(N)nc(NC(c2ccc(C(F)=C(F)F)cc2)C2CC2)n1 (stereo not shown) [Product P14.1568] | very good herbicidal activity | very good herbicidal activity
19 | C#Cc1cccc(C(Nc2nc(N)nc(C(C)C)n2)C2CC2)c1 (stereo not shown) [Product P14.1579] | very good herbicidal activity | very good herbicidal activity
20 | C#Cc1ccc(C(Nc2nc(N)nc(C(C)C)n2)C2CC2)cc1 (stereo not shown) [Product P14.1580] | very good herbicidal activity | very good herbicidal activity
21 | CC#Cc1cccc(C(Nc2nc(N)nc(C(C)C)n2)C2CC2)c1 (stereo not shown) [Product P14.1582] | very good herbicidal activity | very good herbicidal activity

Row | Structure (SMILES) | herbicidal activity post-emergence against harmful plants [1] | herbicidal activity against harmful plants which are typical for rice crops [2]
22 | CC#Cc1ccc(C(Nc2nc(N)nc(C(C)C)n2)C2CC2)cc1 (stereo not shown) [Product P14.1583] | very good herbicidal activity | very good herbicidal activity
23 | CC(C)c1nc(N)nc(NC(c2cccc(C3CC3)c2)C2CC2)n1 (stereo not shown) [Product P14.1603] | very good herbicidal activity | very good herbicidal activity
24 | CC(C)c1nc(N)nc(NC(c2ccc(C3CC3)cc2)C2CC2)n1 (stereo not shown) [Product P14.1604] | very good herbicidal activity | very good herbicidal activity
25 | CC(C)(F)c1nc(N)nc(NCc2ccc(F)c(C(F)=C(F)F)c2)n1 [Product P16.5] | very good herbicidal activity | very good herbicidal activity
26 | CC(C)(F)c1nc(N)nc(NCc2cc(F)c(C(F)=C(F)F)c(F)c2)n1 [Product P16.49] | very good herbicidal activity | very good herbicidal activity
27 | C#Cc1cc(CNc2nc(N)nc(C(C)(C)F)n2)ccc1F [Product P16.309] | very good herbicidal activity | very good herbicidal activity
28 | C#Cc1c(F)cc(CNc2nc(N)nc(C(C)(C)F)n2)cc1F [Product P16.352] | very good herbicidal activity | very good herbicidal activity
29 | CC#Cc1cc(CNc2nc(N)nc(C(C)(C)F)n2)ccc1F [Product P16.384] | very good herbicidal activity | very good herbicidal activity
30 | CC#Cc1c(F)cc(CNc2nc(N)nc(C(C)(C)F)n2)cc1F [Product P16.428] | very good herbicidal activity | very good herbicidal activity
31 | CC(C)(F)c1nc(N)nc(NCc2ccc(F)c(C3CC3)c2)n1 [Product P16.916] | very good herbicidal activity | very good herbicidal activity
32 | CC(C)(F)c1nc(N)nc(NCc2cc(F)c(C3CC3)c(F)c2)n1 [Product P16.960] | very good herbicidal activity | very good herbicidal activity
33 | CC(C)(F)c1nc(N)nc(NCc2cccc(C(F)=C(F)F)c2)n1 [Product P16.1567] | very good herbicidal activity | very good herbicidal activity
34 | CC(C)(F)c1nc(N)nc(NCc2ccc(C(F)=C(F)F)cc2)n1 [Product P16.1568] | very good herbicidal activity | very good herbicidal activity
35 | C#Cc1cccc(CNc2nc(N)nc(C(C)(C)F)n2)c1 [Product P16.1579] | very good herbicidal activity | very good herbicidal activity
36 | C#Cc1ccc(CNc2nc(N)nc(C(C)(C)F)n2)cc1 [Product P16.1580] | very good herbicidal activity | very good herbicidal activity
37 | CC#Cc1cccc(CNc2nc(N)nc(C(C)(C)F)n2)c1 [Product P16.1582] | very good herbicidal activity | very good herbicidal activity
38 | CC#Cc1ccc(CNc2nc(N)nc(C(C)(C)F)n2)cc1 [Product P16.1583] | very good herbicidal activity | very good herbicidal activity
39 | CC(C)(F)c1nc(N)nc(NCc2cccc(C3CC3)c2)n1 [Product P16.1603] | very good herbicidal activity | very good herbicidal activity
40 | CC(C)(F)c1nc(N)nc(NCc2ccc(C3CC3)cc2)n1 [Product P16.1604] | very good herbicidal activity | very good herbicidal activity
41 | CC(Nc1nc(N)nc(C(C)(C)F)n1)c1ccc(F)c(C(F)=C(F)F)c1 (stereo not shown) [Product P17.5] | very good herbicidal activity | very good herbicidal activity
